Test results reported in the kinase profiling compilation of Christmann-Franck et al. (2016).

What was measured:
Assay in all cases: KINOMEscan competition binding
Conditions in all cases: compound 10.0 µM
[1] = molecular target: PIP4K2B (human) (UniProt P78356)
[2] = molecular target: BRSK1 (human) (UniProt Q8TDC3)
[3] = molecular target: MAP3K15 (human) (UniProt Q6ZN16)
[4] = molecular target: DCLK2 (human) (UniProt Q8N568)
[5] = molecular target: ULK1 (human) (UniProt O75385)
[6] = molecular target: CAMK2B (human) (UniProt Q13554)
[7] = molecular target: PRKCQ (human) (UniProt Q04759)
[8] = molecular target: CSF1R (human) (UniProt P07333)
[9] = molecular target: MTOR (human) (UniProt P42345)
[10] = molecular target: STK32A (human) (UniProt Q8WU08)
[11] = molecular target: STK11 (human) (UniProt Q15831)
[12] = molecular target: DAPK2 (human) (UniProt Q9UIK4)
[13] = molecular target: PAK4 (human) (UniProt O96013)
[14] = molecular target: MAPK7 (human) (UniProt Q13164)
[15] = molecular target: MST1R (human) (UniProt Q04912)
[16] = molecular target: CDC42BPG (human) (UniProt Q6DT37)
[17] = molecular target: SIK3 (human) (UniProt Q9Y2K2)
[18] = molecular target: NEK5 (human) (UniProt Q6P3R8)
[19] = molecular target: PIM2 (human) (UniProt Q9P1W9)
[20] = molecular target: MAP3K7 (human) (UniProt O43318)
[21] = molecular target: WEE1 (human) (UniProt P30291)
[22] = molecular target: MAP4K2 (human) (UniProt Q12851)
[23] = molecular target: GSK3A (human) (UniProt P49840)
[24] = molecular target: TAOK1 (human) (UniProt Q7L7X3)
[25] = test system: KIT (human), P10721 [A829P]
[26] = molecular target: JAK2 JH1 catalytic (human) (UniProt O60674)
[27] = molecular target: TTK (human) (UniProt P33981)
[28] = molecular target: TGFBR2 (human) (UniProt P37173)
[29] = molecular target: PDGFRB (human) (UniProt P09619)
[30] = molecular target: CDK7 (human) (UniProt P50613)
[31] = molecular target: RPS6KB1 (human) (UniProt P23443)
[32] = molecular target: GAK (human) (UniProt O14976)
[33] = molecular target: MAPK4 (human) (UniProt P31152)
[34] = molecular target: HIPK1 (human) (UniProt Q86Z02)
[35] = molecular target: CSNK1G3 (human) (UniProt Q9Y6M4)
[36] = molecular target: PRKACA (human) (UniProt P17612)
[37] = molecular target: NEK1 (human) (UniProt Q96PY6)
[38] = molecular target: AAK1 (human) (UniProt Q2M2I8)
[39] = molecular target: MAP3K6 (human) (UniProt O95382)
[40] = molecular target: MAPK13 (human) (UniProt O15264)

KIT (human), P10721 [A829P], sequence (P10721 whole entry A829P, looked up): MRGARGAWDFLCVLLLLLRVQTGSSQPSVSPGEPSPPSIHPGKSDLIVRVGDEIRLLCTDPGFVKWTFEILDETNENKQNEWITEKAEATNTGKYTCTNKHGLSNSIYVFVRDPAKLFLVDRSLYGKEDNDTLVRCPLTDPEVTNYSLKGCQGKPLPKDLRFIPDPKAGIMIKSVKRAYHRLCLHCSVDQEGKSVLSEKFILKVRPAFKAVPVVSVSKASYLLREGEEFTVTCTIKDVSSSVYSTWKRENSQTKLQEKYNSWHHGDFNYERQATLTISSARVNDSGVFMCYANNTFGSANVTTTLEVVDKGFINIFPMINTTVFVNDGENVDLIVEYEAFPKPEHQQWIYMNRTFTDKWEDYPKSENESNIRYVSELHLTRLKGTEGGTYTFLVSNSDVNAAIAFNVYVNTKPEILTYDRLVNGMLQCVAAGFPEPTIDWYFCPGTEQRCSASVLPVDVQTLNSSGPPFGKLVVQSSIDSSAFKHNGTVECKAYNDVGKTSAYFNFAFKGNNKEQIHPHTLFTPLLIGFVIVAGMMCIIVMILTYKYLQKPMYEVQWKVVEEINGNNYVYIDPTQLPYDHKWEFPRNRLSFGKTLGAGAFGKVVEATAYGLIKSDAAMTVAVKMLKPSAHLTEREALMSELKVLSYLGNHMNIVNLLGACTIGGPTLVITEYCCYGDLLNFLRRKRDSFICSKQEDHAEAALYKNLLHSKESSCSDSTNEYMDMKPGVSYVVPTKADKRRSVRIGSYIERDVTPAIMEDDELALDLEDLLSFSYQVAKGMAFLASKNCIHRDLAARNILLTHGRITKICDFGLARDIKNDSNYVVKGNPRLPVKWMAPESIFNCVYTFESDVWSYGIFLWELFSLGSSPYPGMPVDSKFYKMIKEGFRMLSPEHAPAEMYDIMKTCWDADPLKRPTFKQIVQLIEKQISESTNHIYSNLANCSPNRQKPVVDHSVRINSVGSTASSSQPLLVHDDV
AAK1 (human), sequence (Q2M2I8 whole entry, looked up): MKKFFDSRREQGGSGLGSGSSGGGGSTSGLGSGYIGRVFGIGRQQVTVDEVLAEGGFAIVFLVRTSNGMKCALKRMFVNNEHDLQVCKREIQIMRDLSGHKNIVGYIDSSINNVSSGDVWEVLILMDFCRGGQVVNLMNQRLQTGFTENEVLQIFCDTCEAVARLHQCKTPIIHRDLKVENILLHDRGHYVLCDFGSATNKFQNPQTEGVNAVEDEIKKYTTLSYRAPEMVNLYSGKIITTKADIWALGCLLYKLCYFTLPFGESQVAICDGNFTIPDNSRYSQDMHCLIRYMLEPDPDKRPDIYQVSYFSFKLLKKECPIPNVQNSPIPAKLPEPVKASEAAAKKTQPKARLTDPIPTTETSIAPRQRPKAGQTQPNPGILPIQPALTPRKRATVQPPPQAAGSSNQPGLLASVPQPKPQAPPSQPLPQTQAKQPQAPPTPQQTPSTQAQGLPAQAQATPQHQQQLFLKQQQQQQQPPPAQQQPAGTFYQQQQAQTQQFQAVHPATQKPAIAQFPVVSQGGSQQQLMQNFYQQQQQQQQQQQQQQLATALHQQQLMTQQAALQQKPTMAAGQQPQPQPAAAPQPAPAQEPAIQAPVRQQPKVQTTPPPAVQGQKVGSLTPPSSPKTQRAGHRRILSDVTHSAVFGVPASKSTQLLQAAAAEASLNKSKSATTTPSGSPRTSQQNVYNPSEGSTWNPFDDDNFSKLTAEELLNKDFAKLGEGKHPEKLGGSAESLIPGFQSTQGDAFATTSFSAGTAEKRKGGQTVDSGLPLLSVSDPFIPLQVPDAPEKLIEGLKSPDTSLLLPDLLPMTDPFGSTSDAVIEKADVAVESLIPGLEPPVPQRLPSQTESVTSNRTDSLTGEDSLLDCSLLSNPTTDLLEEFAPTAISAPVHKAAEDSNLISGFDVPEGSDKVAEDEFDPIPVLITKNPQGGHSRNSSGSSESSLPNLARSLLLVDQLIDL
GAK (human), sequence (O14976 whole entry, looked up): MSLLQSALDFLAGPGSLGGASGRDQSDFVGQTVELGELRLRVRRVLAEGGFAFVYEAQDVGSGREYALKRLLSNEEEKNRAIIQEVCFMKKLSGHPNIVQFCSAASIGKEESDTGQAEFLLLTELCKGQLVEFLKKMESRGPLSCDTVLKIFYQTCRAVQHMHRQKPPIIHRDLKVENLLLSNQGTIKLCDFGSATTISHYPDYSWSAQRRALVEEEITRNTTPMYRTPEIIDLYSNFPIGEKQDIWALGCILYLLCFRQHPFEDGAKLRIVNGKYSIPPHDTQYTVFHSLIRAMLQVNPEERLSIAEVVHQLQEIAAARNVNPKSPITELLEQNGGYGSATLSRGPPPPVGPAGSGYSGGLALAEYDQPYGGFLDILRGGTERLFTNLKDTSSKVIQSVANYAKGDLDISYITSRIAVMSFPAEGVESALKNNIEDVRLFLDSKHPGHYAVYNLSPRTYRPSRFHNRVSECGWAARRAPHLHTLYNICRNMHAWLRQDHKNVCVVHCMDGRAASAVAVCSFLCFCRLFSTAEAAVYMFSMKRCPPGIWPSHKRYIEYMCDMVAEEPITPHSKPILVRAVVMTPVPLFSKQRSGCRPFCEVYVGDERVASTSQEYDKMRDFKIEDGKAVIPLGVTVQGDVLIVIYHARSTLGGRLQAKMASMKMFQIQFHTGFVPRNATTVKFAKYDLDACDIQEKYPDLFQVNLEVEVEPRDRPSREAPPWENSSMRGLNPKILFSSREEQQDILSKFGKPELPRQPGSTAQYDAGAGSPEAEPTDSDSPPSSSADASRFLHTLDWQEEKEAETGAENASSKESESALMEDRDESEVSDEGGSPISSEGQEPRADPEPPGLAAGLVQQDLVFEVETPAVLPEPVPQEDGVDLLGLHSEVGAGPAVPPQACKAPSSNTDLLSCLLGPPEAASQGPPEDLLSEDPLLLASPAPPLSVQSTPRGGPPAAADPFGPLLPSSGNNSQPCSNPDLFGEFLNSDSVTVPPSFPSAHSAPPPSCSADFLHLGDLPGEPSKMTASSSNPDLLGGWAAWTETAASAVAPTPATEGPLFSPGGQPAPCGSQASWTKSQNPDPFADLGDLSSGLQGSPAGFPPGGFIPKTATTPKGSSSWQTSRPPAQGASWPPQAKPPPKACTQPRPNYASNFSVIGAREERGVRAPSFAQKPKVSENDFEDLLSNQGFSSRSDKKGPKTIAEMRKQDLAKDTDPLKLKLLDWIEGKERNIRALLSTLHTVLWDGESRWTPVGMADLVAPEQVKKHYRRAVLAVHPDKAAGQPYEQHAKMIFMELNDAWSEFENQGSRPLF
TAOK1 (human), sequence (Q7L7X3 whole entry, looked up): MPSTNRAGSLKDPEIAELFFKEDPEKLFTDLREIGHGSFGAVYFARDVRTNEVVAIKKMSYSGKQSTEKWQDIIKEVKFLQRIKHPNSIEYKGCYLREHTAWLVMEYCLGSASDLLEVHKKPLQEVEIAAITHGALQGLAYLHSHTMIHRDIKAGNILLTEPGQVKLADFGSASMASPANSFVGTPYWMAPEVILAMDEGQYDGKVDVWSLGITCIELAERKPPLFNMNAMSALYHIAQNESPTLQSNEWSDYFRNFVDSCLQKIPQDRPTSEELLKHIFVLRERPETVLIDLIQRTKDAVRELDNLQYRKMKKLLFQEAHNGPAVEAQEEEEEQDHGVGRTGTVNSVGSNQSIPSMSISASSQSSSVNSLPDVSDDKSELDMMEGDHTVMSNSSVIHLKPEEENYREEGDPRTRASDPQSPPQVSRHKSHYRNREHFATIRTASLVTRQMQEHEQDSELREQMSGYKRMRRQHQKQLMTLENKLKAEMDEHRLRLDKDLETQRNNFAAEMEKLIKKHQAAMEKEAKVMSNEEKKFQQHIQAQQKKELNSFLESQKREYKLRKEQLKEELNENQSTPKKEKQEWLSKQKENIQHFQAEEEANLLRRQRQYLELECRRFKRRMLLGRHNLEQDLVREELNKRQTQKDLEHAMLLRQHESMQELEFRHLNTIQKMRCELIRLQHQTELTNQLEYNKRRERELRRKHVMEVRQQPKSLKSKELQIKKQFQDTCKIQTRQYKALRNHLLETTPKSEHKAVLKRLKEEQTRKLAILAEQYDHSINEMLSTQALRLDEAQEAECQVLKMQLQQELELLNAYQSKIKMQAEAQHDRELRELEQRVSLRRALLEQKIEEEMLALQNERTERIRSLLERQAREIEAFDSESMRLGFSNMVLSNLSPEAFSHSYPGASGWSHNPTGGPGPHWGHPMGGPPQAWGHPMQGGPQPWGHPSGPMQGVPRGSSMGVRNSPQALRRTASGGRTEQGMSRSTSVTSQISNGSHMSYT
DCLK2 (human), sequence (Q8N568 whole entry, looked up): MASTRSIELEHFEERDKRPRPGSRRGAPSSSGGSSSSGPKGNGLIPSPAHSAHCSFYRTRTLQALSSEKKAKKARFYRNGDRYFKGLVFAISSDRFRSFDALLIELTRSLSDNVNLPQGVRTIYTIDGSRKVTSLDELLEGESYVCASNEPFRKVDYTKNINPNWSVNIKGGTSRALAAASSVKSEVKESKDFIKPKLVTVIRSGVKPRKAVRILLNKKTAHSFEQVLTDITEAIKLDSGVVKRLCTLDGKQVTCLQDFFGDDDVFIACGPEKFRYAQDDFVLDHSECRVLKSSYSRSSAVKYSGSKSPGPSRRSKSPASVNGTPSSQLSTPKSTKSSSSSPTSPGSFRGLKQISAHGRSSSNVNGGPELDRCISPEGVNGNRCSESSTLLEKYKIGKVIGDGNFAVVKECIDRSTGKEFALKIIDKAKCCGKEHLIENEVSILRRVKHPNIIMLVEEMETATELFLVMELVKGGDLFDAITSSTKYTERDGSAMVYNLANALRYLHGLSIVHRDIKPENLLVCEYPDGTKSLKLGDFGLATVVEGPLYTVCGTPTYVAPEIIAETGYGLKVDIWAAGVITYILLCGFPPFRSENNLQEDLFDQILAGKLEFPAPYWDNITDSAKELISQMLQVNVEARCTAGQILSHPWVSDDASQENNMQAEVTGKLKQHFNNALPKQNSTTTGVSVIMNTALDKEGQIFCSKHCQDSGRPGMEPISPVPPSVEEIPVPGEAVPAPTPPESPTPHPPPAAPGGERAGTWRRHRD

Row | Compound | kinase still bound, per cent of control [1] | kinase still bound, per cent of control [2] | kinase still bound, per cent of control [3] | kinase still bound, per cent of control [4] | kinase still bound, per cent of control [5] | kinase still bound, per cent of control [7] | kinase still bound, per cent of control [8] | kinase still bound, per cent of control [11] | kinase still bound, per cent of control [12] | kinase still bound, per cent of control [14] | kinase still bound, per cent of control [16] | kinase still bound, per cent of control [17] | kinase still bound, per cent of control [18] | kinase still bound, per cent of control [19] | kinase still bound, per cent of control [20] | kinase still bound, per cent of control [21] | kinase still bound, per cent of control [22] | kinase still bound, per cent of control [23] | kinase still bound, per cent of control [24] | kinase still bound, per cent of control [26] | other results
1 | CCN(CCO)CCCOc1ccc2c(Nc3cc(CC(=O)Nc4cccc(F)c4)[nH]n3)ncnc2c1 | 100% | 64% | 100% | 100% | 76% | 100% | 5% | 80% | 89% | 87% | 100% | 100% | 100% | 100% | 16% | 100% | 29% | 100% | 59% | 58% | kinase still bound, per cent of control [6]: 84%; kinase still bound, per cent of control [9]: 100%; kinase still bound, per cent of control [10]: 100%; kinase still bound, per cent of control [13]: 100%; kinase still bound, per cent of control [15]: 25%; kinase still bound, per cent of control [25]: 50%; kinase still bound, per cent of control [27]: 49%; kinase still bound, per cent of control [28]: 100%; kinase still bound, per cent of control [29]: 0%; kinase still bound, per cent of control [30]: 15%; kinase still bound, per cent of control [31]: 13%; kinase still bound, per cent of control [32]: 21%; kinase still bound, per cent of control [33]: 100%; kinase still bound, per cent of control [34]: 40%; kinase still bound, per cent of control [35]: 100%; kinase still bound, per cent of control [36]: 100%
2 | CCc1nc(-c2cccc(C)c2)c(-c2ccnc(NC(=O)c3ccccc3)c2)s1 | 93% | 93% | 100% | 98% | 69% | 100% | 76% | 96% | 88% | 98% | 15% | 94% | 100% | 82% | 64% | 100% | 93% | 100% | 72% | 100% | kinase still bound, per cent of control [9]: 100%; kinase still bound, per cent of control [10]: 9%; kinase still bound, per cent of control [13]: 86%; kinase still bound, per cent of control [15]: 88%; kinase still bound, per cent of control [37]: 90%; kinase still bound, per cent of control [38]: 96%; kinase still bound, per cent of control [39]: 100%; kinase still bound, per cent of control [25]: 100%; kinase still bound, per cent of control [27]: 70%; kinase still bound, per cent of control [28]: 82%; kinase still bound, per cent of control [29]: 34%; kinase still bound, per cent of control [30]: 100%; kinase still bound, per cent of control [31]: 90%; kinase still bound, per cent of control [32]: 4.4%; kinase still bound, per cent of control [33]: 90%; kinase still bound, per cent of control [34]: 94%; kinase still bound, per cent of control [35]: 17%; kinase still bound, per cent of control [36]: 85%
3 | CC(=O)c1c(C)c2cnc(Nc3ccc(N4CCNCC4)cn3)nc2n(C2CCCC2)c1=O | 18% | 68% | 11% | 2.9% | 3.1% | 68% | 50% | 82% | 2.4% | 0.65% | 94% | 100% | 27% | 52% | 7.9% | 36% | 52% | 50% | 11% | 0.65% | kinase still bound, per cent of control [6]: 4.4%; kinase still bound, per cent of control [9]: 40%; kinase still bound, per cent of control [10]: 87%; kinase still bound, per cent of control [37]: 61%; kinase still bound, per cent of control [38]: 11%; kinase still bound, per cent of control [39]: 69%; kinase still bound, per cent of control [25]: 32%; kinase still bound, per cent of control [27]: 26%; kinase still bound, per cent of control [29]: 29%; kinase still bound, per cent of control [30]: 12%; kinase still bound, per cent of control [31]: 36%; kinase still bound, per cent of control [32]: 4.4%; kinase still bound, per cent of control [33]: 87%; kinase still bound, per cent of control [34]: 0.1%; kinase still bound, per cent of control [36]: 100%
4 | CCOc1cc(N2CCC(O)CC2)ccc1Nc1ncc2c(n1)N(C)c1ccccc1C(=O)N2C | 100% | 100% | 100% | 0.65% | 100% | 100% | 100% | 100% | 100% | 0% | 100% | 100% | 100% | 100% | 100% | 100% | 100% | 100% | 100% | 100% | kinase still bound, per cent of control [6]: 100%; kinase still bound, per cent of control [13]: 100%; kinase still bound, per cent of control [40]: 100%; kinase still bound, per cent of control [15]: 100%; kinase still bound, per cent of control [37]: 100%; kinase still bound, per cent of control [38]: 100%; kinase still bound, per cent of control [39]: 100%; kinase still bound, per cent of control [27]: 19%; kinase still bound, per cent of control [28]: 100%; kinase still bound, per cent of control [29]: 100%; kinase still bound, per cent of control [30]: 100%; kinase still bound, per cent of control [32]: 31%; kinase still bound, per cent of control [33]: 100%; kinase still bound, per cent of control [34]: 100%; kinase still bound, per cent of control [35]: 100%; kinase still bound, per cent of control [36]: 100%
